EP4043466B1, “PRC2 INHIBITORS” (Mirati Therapeutics, Inc., priority 2018, dated 2019)

target: purified human, His-tagged PRC2 complex (Homo sapiens, UniProt O75530+Q15910); assay: Hot Spot HMT assay: inhibition of PRC2 enzymatic activity (transfer of tritiated methyl from SAM to core histone, filter binding); format: biochemical; conditions: not given
Source text: The assay uses purified human, His-tagged PRC2 complex, including N-terminal His-tagged EZH2 enzyme, N-terminal Flag-tagged embryonic ectoderm development protein (EED), N-terminal His-tagged suppressor of zeste 12 (SUZ12), N-terminal His-tagged AEBP2, and N-terminal His-tagged RbAp48. In this assay, the transfer of the tritiated methyl group from radiolabeled S-adenosyl methionine (SAM) to purified core histone protein by EZH2 is quantitated after filtration to determine the activity of the core PRC2 complex in the presence and absence of compound.
The initial starting concentration for the serial dilutions of each compound was 1.0 µM. […] SAH (S-(5-adenosyl)-L-homocysteine) was used as a positive control for assay validation.
An aliquot of each serial dilution of test compound was added to deep 384 well plate using Acoustic Technology instrument (Echo 550, LabCyte) containing reaction buffer (50 mM Tris-HCl (pH 8.)), 0.01% Brij35, 1 mM EDTA, 1 mM DTT, 1 mM PMSF and 1% DMSO), 10 nM purified PRC2 complex and 0.05 mg/ml core histone H3 in a 5 µl volume. The reaction was mixed gently and then pre-incubated for 20 min at 30°C. The enzymatic reaction was initiated by adding 1 uM S-Adenosyl-L-[methyl - ^3H]methionine and incubated for 1 hr at 30°C. After 1 hr, the reaction product was detected using a filter binding method and the amount of tritiated H3 core histone was quantitated using a scintillation counter.

purified human, His-tagged PRC2 complex, sequence (Q15910 whole entry): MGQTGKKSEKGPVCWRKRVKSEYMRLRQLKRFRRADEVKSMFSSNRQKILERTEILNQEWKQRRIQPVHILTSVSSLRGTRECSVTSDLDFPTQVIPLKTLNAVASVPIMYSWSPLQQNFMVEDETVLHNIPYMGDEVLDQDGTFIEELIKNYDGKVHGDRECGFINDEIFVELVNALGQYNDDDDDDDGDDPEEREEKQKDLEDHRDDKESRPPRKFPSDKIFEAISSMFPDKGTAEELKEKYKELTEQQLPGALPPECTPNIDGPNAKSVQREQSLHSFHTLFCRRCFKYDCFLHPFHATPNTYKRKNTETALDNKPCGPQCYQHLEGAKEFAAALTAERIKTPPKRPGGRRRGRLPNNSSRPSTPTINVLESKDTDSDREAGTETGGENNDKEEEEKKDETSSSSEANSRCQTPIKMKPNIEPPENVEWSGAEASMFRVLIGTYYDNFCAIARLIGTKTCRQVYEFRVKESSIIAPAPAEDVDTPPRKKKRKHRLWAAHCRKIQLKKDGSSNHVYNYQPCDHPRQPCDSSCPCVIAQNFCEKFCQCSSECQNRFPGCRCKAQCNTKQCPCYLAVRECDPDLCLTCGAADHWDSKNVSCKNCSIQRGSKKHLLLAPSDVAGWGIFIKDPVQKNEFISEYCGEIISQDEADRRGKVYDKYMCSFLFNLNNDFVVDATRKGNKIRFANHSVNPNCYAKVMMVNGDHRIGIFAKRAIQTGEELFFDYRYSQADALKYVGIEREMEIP
purified human, His-tagged PRC2 complex, sequence (O75530 whole entry): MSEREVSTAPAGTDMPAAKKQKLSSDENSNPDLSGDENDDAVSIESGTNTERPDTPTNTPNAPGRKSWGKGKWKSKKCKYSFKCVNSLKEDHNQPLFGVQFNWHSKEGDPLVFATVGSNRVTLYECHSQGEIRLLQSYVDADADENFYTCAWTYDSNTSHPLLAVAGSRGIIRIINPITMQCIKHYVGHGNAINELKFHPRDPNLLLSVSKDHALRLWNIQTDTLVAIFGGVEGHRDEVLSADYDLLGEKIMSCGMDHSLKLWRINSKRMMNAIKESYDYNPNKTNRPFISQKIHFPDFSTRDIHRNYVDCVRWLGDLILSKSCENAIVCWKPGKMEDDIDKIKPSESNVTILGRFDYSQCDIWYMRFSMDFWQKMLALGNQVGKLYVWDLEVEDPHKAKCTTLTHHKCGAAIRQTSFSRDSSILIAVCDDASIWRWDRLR
purified human, His-tagged PRC2 complex, sequence (Q15022 whole entry partner): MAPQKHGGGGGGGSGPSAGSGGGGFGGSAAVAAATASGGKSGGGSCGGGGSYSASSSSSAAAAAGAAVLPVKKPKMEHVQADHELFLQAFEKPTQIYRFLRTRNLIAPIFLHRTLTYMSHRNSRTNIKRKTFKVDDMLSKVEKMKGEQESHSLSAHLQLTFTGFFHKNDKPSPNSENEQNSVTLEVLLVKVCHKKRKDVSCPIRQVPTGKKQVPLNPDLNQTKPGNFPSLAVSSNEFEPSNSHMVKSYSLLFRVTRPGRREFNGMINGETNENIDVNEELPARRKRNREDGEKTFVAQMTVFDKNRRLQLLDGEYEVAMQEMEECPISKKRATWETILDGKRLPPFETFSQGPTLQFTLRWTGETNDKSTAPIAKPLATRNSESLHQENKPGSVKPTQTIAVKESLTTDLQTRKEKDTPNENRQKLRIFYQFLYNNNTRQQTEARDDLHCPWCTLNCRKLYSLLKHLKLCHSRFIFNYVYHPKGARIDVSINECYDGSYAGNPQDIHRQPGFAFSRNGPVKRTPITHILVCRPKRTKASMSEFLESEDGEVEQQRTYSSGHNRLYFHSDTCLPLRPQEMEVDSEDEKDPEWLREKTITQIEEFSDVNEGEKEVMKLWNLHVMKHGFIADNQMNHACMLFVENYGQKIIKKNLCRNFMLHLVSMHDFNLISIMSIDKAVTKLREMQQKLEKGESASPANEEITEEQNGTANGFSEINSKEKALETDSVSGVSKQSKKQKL
purified human, His-tagged PRC2 complex, sequence (Q6ZN18 whole entry partner): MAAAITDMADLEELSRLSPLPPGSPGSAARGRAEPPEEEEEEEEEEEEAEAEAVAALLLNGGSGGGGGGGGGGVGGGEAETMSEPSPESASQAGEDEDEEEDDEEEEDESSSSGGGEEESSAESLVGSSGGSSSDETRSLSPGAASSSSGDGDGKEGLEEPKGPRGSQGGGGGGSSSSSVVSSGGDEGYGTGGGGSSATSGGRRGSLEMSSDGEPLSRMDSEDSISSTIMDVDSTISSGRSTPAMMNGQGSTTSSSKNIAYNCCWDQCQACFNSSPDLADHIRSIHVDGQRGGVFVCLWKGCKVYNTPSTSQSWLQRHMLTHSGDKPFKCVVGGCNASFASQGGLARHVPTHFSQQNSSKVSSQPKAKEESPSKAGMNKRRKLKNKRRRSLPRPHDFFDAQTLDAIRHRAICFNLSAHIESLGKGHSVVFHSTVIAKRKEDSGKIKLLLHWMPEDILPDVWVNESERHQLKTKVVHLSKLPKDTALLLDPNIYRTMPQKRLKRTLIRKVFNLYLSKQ
purified human, His-tagged PRC2 complex, sequence (Q09028 whole entry partner): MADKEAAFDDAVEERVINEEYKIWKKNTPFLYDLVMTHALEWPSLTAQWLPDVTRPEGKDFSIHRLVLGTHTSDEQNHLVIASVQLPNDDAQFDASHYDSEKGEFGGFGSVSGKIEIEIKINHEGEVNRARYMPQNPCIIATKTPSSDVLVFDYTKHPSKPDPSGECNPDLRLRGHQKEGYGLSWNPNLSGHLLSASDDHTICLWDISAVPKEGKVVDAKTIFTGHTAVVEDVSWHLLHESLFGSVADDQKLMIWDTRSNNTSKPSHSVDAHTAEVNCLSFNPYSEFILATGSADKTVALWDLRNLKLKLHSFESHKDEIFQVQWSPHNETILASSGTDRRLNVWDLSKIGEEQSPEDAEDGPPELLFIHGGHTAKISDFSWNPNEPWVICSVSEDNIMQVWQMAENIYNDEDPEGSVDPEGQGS

Row | SMILES | IC50
1 | CNCc1cc(-c2cnc(NCc3c(F)ccc4c3CCO4)n3cc(C#N)nc23)n(C)n1 [Example 211, 5-(((5-fluoro-2,3-dihydrobenzofuran-4-yl)methyl)amino)-8-(1-methyl-3-((methylamino)methyl)-1H-pyrazol-5-yl)imidazo[1,2-c]pyrimidine-2-carbonitrile] | < 100 nM
2 | CN(C)Cc1cc(-c2cnc(NCc3c(F)ccc4c3CCO4)n3cc(C#N)nc23)n(C)n1 [Example 210, 8-(3-((dimethylamino)methyl)-1-methyl-1H-pyrazol-5-yl)-5-(((5-fluoro-2,3-dihydrobenzofuran-4-yl)methyl)amino)imidazo[1,2-c]pyrimidine-2-carbonitrile] | < 100 nM

same assay, conditions: Inhibition of PRC2-mediated enzymatic activity; 10 nM PRC2 complex, 0.05 mg/ml core histone H3, 1 uM 3H-SAM, 1 hr at 30°C

Row | SMILES | IC50
3 | COc1cc(C)c(-c2cnc(NCc3c(F)ccc4c3CCO4)n3cc(C(N)=O)nc23)cn1 [Example 14, 5-(((5-fluoro-2,3-dihydrobenzofuran-4-yl)methyl)amino)-8-(6-methoxy-4-methylpyridin-3-yl)imidazo[1,2-c]pyrimidine-2-carboxamide] | 100 to 500 nM
4 | Cc1cc(-c2cnc(NCc3c(F)ccc4c3C(O)CO4)n3cc(C#N)nc23)n(C)n1 (stereo not shown) [Example 155, 8-(1,3-dimethyl-1H-pyrazol-5-yl)-5-(((5-fluoro-3-hydroxy-2,3-dihydrobenzofuran-4-yl)methyl)amino)imidazo[1,2-c]pyrimidine-2-carbonitrile] | < 100 nM
5 | N#Cc1cn2c(NCc3c(F)ccc4c3CCO4)ncc(C3CCOCC3)c2n1 [Example 141, 5-(((5-fluoro-2,3-dihydrobenzofuran-4-yl)methyl)amino)-8-(tetrahydro-2H-pyran-4-yl)imidazo[1,2-c]pyrimidine-2-carbonitrile] | > 500 nM
6 | Cc1cc(-c2cnc(NCc3cccc4c3CCO4)n3cc(C(=O)O)nc23)n(C)n1 [Example 10, 5-(((2,3-dihydrobenzofuran-4-yl)methyl)amino)-8-(1,3-dimethyl-1H-pyrazol-5-yl)imidazo[1,2-c]pyrimidine-2-carboxylic acid] | < 100 nM
7 | N#Cc1cn2c(NCc3c(F)ccc4c3CCO4)ncc(-c3cnc(N)c(C(F)(F)F)c3)c2n1 [Example 134, 8-(6-amino-5-(trifluoromethyl)pyridin-3-yl)-5-(((5-fluoro-2,3-dihydrobenzofuran-4-yl)methyl)amino)imidazo[1,2-c]pyrimidine-2-carbonitrile] | 100 to 500 nM
8 | COc1cc(C)c(-c2cnc(NCc3c(F)ccc4c3CCO4)n3cc(C#N)nc23)cn1 [Example 24, 5-(((5-fluoro-2,3-dihydrobenzofuran-4-yl)methyl)amino)-8-(6-methoxy-4-methylpyridin-3-yl)imidazo[1,2-c]pyrimidine-2-carbonitrile] | 100 to 500 nM
9 | Cc1n[nH]c(C)c1-c1cnc(NCc2c(F)ccc3c2CCO3)n2cc(C#N)nc12 [Example 104, 8-(3,5-dimethyl-1H-pyrazol-4-yl)-5-(((5-fluoro-2,3-dihydrobenzofuran-4-yl)methyl)amino)imidazo[1,2-c]pyrimidine-2-carbonitrile] | > 500 nM
10 | COc1cc(C)c(-c2cnc(NCc3c(F)ccc4c3CCO4)n3cc(C(=O)O)nc23)cn1 [Example 6, 5-(((5-fluoro-2,3-dihydrobenzofuran-4-yl)methyl)amino)-8-(6-methoxy-4-methylpyridin-3-yl)imidazo[1,2-c]pyrimidine-2-carboxylic acid] | 100 to 500 nM
11 | COc1cc(-c2cnc(NCc3c(F)ccc4c3CCO4)n3cc(C#N)nc23)c(OC)cn1 [Example 125, 8-(2,5-dimethoxypyridin-4-yl)-5-(((5-fluoro-2,3-dihydrobenzofuran-4-yl)methyl)amino)imidazo[1,2-c]pyrimidine-2-carbonitrile] | < 100 nM
12 | COc1cc(Cl)c(-c2cnc(NCc3c(F)ccc4c3CCO4)n3cc(C#N)nc23)cn1 [Example 91, 8-(4-chloro-6-methoxypyridin-3-yl)-5-(((5-fluoro-2,3-dihydrobenzofuran-4-yl)methyl)amino)imidazo[1,2-c]pyrimidine-2-carbonitrile] | 100 to 500 nM
13 | CN(C)C(=O)c1ccc(-c2cnc(NCc3c(F)ccc4c3CCO4)n3cc(C#N)nc23)c(Cl)c1F [Example 34, 3-chloro-4-(2-cyano-5-(((5-fluoro-2,3-dlhydrobenzofuran-4-yl)methyl)amino)imidazo[1,2-c]pyrimidin-8-yl)-2-fluoro-N,N-dimethylbenzamide] | < 100 nM
14 | Cc1c(-c2cnc(NCc3c(F)ccc4c3CCO4)n3cc(C(=O)O)nc23)cnn1C(C)C [Example 8, 5-(((5-fluoro-2,3-dihydrobenzofuran-4-yl)methyl)amino)-8-(1-isopropyl-5-methyl-1H-pyrazol-4-yl)imidazo[1,2-c]pyrimidine-2-carboxylic acid] | < 100 nM
15 | Cc1cc(-c2cnc(NCc3cccc4c3OCO4)n3cc(C#N)nc23)n(C)n1 [Example 27, 5-((benzo[d][1,3]dioxol-4-ylmethyl)amino)-8-(1,3-dimethyl-1H-pyrazol-5-yl)imidazo[1,2-c]pyrimidine-2-carbonitrile] | > 500 nM

Second part, the compound after the results:

Row | IC50 | SMILES
16 | < 100 nM | N#Cc1cn2c(NCc3c(F)ccc4c3CCO4)ncc(-c3ccc(CN4CCC(F)(F)C4)cc3)c2n1 [Example 55, 8-(4-((3,3-difluoropyrrolidin-1-yl)methyl)phenyl)-5-(((5-fluoro-2,3-dihydrobenzofuran-4-yl)methyl)amino)imidazo[1,2-c]pyrimidine-2-carbonitrile]
17 | < 100 nM | N#Cc1cncc(-c2cnc(NCc3c(F)ccc4c3CCO4)n3cc(C#N)nc23)c1 [Example 95, 8-(5-cyanopyridin-3-yl)-5-(((5-fluoro-2,3-dihydrobenzofuran-4-yl)methyl)amino)imidazo[1,2-c]pyrimidine-2-carbonitrile]
18 | < 100 nM | CN1CCC1c1ccc(-c2cnc(NCc3c(F)ccc4c3CCO4)n3cc(C#N)nc23)cc1 (stereo not shown) [Example 221, 5-(((5-fluoro-2,3-dihydrobenzofuran-4-yl)methyl)amino)-8-(4-(1-methylazetidin-2-yl)phenyl)imidazo[1,2-c]pyrimidine-2-carbonitrile]
19 | 100 to 500 nM | COc1cncc(-c2cnc(NCc3c(F)ccc4c3CCO4)n3cc(C#N)nc23)c1 [Example 93, 5-(((5-fluoro-2,3-dihydrobenzofuran-4-yl)methyl)amino)-8-(5-methoxypyridin-3-yl)imidazo[1,2-c]pyrimidine-2-carbonitrile]
20 | < 100 nM | COc1ccc(-c2cnc(NCc3c(F)ccc4c3CCO4)n3cc(C#N)nc23)cn1 [Example 94, 5-(((5-fluoro-2,3-dihydrobenzofuran-4-yl)methyl)amino)-8-(6-methoxypyridin-3-yl)imidazo[1,2-c]pyrimidine-2-carbonitrile]
21 | 100 to 500 nM | CN(C)CCCn1cc(-c2cnc(NCc3c(F)ccc4c3CCO4)n3cc(C#N)nc23)cn1 [Example 103, 8-(1-(3-(dimethylamino)propyl)-1H-pyrazol-4-yl)-5-(((5-fluoro-2,3-dihydrobenzofuran-4-yl)methyl)amino)imidazo[1,2-c]pyrimidine-2-carbonitrile]
22 | < 100 nM | N#Cc1cn2c(NCc3c(F)ccc4c3CCO4)ncc(-c3cnccc3Cl)c2n1 [Example 109, 8-(4-chloropyridin-3-yl)-5-(((5-fluoro-2,3-dihydrobenzofuran-4-yl)methyl)amino)imidazo[1,2-c]pyrimidine-2-carbonitrile]
23 | < 100 nM | N#Cc1cn2c(NCc3c(F)ccc4c3CCO4)ncc(-c3ccc(N4CCCCC4)nc3)c2n1 [Example 135, 5-(((5-fluoro-2,3-dihydrobenzofuran-4-yl)methyl)amino)-8-(6-(piperidin-1-yl)pyridin-3-yl)imidazo[1,2-c]pyrimidine-2-carbonitrile]
24 | < 100 nM | CN(C)Cc1ccc(-c2cnc(NCc3c(F)ccc4c3CCO4)n3cc(C#N)nc23)c(Cl)c1F [Example 83, 8-(2-chloro-4-((dimethylamino)methyl)-3-fluorophenyl)-5-(((5-fluoro-2,3-dihydrobenzofuran-4-yl)methyl)amino)imidazo[1,2-c]pyrimidine-2-carbonitrile]
25 | 100 to 500 nM | Cc1c(-c2cnc(NCc3c(F)ccc4c3CCO4)n3cc(C#N)nc23)cnn1C(C)C [Example 26, 5-(((5-fluoro-2,3-dihydrobenzofuran-4-yl)methyl)amino)-8-(1-isopropyl-5-methyl-1H-pyrazol-4-yl)imidazo[1,2-c]pyrimidine-2-carbonitrile]
26 | < 100 nM | CN(C)Cc1ncc(-c2cnc(NCc3c(F)ccc4c3CCO4)n3cc(C#N)nc23)cn1 [Example 216, 8-(2-((dimethylamino)methyl)pyrimidin-5-yl)-5-(((5-fluoro-2,3-dihydrobenzofuran-4-yl)methyl)amino)imidazo[1,2-c]pyrimidine-2-carbonitrile]
27 | 100 to 500 nM | N#Cc1cn2c(NCc3c(F)ccc4c3CCO4)ncc(-c3ccc(C(F)(F)F)nc3)c2n1 [Example 126, 5-(((5-fluoro-2,3-dihydrobenzofuran-4-yl)methyl)amino)-8-(6-(trifluoromethyl)pyridin-3-yl)imidazo[1,2-c]pyrimidine-2-carbonitrile]
28 | 100 to 500 nM | N#Cc1cn2c(NCc3c(F)ccc4c3CCO4)ncc(-c3cnn(C4CCOC4)c3)c2n1 (stereo not shown) [Example 107, 5-(((5-fluoro-2,3-dihydrobenzofuran-4-yl)methyl)amino)-8-(1-(tetrahydrofuran-3-yl)-1H-pyrazol-4-yl)imidazo[1,2-c]pyrimidine-2-carbonitrile]
